{"source": "paper PMC5438364", "about": "“A broad-spectrum bactericidal lipopeptide with anti-biofilm properties” (Scientific Reports, 2017)", "key": {"[1]": {"tested_on": "S. mutans ATCC 35668 biofilm", "experiment": "Anti-biofilm activity on pre-formed biofilm", "format": "cell-based, Streptococcus mutans", "conditions": "≥0.5 mM, within one hour of exposure, inoculum 10^9 CFU/ml", "experimental": "Anti-biofilm activity was evaluated against established biofilms in 96-well plates as follows. 200 µl of mid-log-phase S. mutans 35668 at 5 × 10^5 CFU/ml in BHI containing 2% sucrose were placed in each well, and plates were incubated for 24 hr at 37 °C without shaking. Unattached cells were removed by decanting the plates and biofilms were washed three times with milliQ water. Solutions of the tested compounds were placed on the biofilms for up to 3 hr at 37 °C without shaking. Plates were decanted in 0.5 hr intervals and biofilms were washed three times with milliQ water to remove any compound residues. Biofilms were scraped from the bottom of the wells, suspended in BHI and sonicated for 5 min in a sonication bath, subjected to serial 10-fold dilutions in saline and plated on BHI agar for enumeration."}, "[2]": {"tested_on": "E. coli ML-35p", "experiment": "Bactericidal kinetics (time-kill)", "format": "cell-based, Escherichia coli", "conditions": "within 2 hours exposure at ≥MIC; 5 × 10^5 CFU/ml, 37 °C", "experimental": "(§1) Bactericidal kinetics was assessed by incubating 5 × 10^5 CFU/ml of mid-log-phase bacteria with the OAK for 3 hr at 37 °C with shaking. Aliquots were taken at t = 0, 0.5, 1, 2 and 3 hr, subjected to serial 10-fold dilutions in saline (NaCl = 0.85%) and plated for enumeration after 24–48 hr incubation at 37 °C."}, "[3]": {"tested_on": "E. coli AG100", "format": "cell-based, Escherichia coli", "conditions": "wild type AG100", "from_the_text": "(§2) Gram-negative bacteria tested were: ATCC strains Escherichia coli 25922, 43894, Pseudomonas aeruginosa 27853, 9027, Acinetobacter baumannii 19606, A. caloaceticus 31299, Salmonella Typhimurium 14028, Fusobacterium nucleatum 23726, Porphyromonas gingivalis 53977, clinical isolates E. coli 14182, 14384, U-16327, U-16329, P. aeruginosa 1278, Klebsiella pneumoniae 1287, K2–224, C2, A. baumannii 1279, 1280, 1281, F. nucleatum PK 1594, the engineered E. coli ML-35p and the isogenic K-12 pair AG100, AG100a (ΔacrAB). Dental related bacteria (generous gift of Prof. Doron Steinberg and Gilad Bachrach from the Hebrew University of Jerusalem) appear in bold characters.\n(§3) Minimal inhibitory concentration (MIC) was determined using the microdilution assay. Mid-log-phase bacteria at 5 × 10^5 CFU/ml were incubated in a 96-well plate with serial two-fold dilutions of the tested compound for 18–24 hr at 37 °C (final volume of 200 µl). O.D. at 620 nm was measured (Synergy HT, BioTek Instruments, Winooski, VT, USA), and the MIC was determined as the lowest concentration for which no increase in O.D. was detected."}, "[4]": {"tested_on": "E. coli AG100A (ΔacrAB)", "format": "cell-based, Escherichia coli", "conditions": "efflux deletion-mutant AG100A", "from_the_text": "as §2, §3"}, "[5]": {"tested_on": "S. aureus 29213", "format": "cell-based, Staphylococcus aureus", "experimental": "as §3"}, "[6]": {"tested_on": "S. mutans ATCC 35668", "experiment": "Bactericidal kinetics (time-kill)", "format": "cell-based, Streptococcus mutans", "experimental": "as §1"}, "[7]": {"tested_on": "cultivable oral microflora", "experiment": "Bacterial killing in whole human saliva", "format": "cell-based", "conditions": "within two minutes of exposure, 37 °C", "experimental": "Bactericidal kinetics in saliva was assessed as follows. Whole saliva was pooled from two-three healthy volunteers at a time, after obtaining their informed consent. To test for specific activity against S. mutans, saliva was centrifuged for 5 min at 15,000 g and 4 °C, and the supernatant was spiked with 1 × 10^7 CFU/ml of mid-log-phase S. mutans 35668. Otherwise, activity against natural oral microflora was also performed on whole saliva. Saliva was mixed with the tested compound, incubated at 37 °C with shaking, and aliquots were taken at t = 0, 2, 5 and 10 min. Aliquots were subjected to serial 10-fold dilutions in saline and plated on BHI agar for enumeration."}, "[8]": {"tested_on": "Porphyromonas", "format": "cell-based, Porphyromonas gingivalis", "conditions": "48 h", "from_the_text": "as §2\n(§4) Staphylococci, Bacilli, Escherichia, Pseudomonas, Acinetobacter, Salmonella and Klebsiella species were grown in Luria Bertani broth (LB; 5 gr/l NaCl, 5 gr/l yeast extract, 10 gr/l tryptone). Enterococci and E. coli ML-35p were grown in Tryptic Soy Broth (TSB). Listeria and Streptococci were grown in Brain Heart Infusion (BHI). All bacteria were grown over-night at 37 °C with shaking. S. mutans 35668 plated on BHI agar for enumeration was grown for 48 hr. […]\n(§5) Minimal inhibitory concentration (MIC) was determined using the microdilution assay. […] O.D. at 620 nm was measured (Synergy HT, BioTek Instruments, Winooski, VT, USA), and the MIC was determined as the lowest concentration for which no increase in O.D. was detected."}, "[9]": {"tested_on": "GPB and GNB", "experiment": "Effect observed at low concentrations, analog series", "format": "cell-based", "conditions": "summary of this and previous studies", "experimental": "Table 2 Modulating biophysical properties of a core sequence by conjugating an N-terminal acyl. | column: Effect observed at low concentrations (<3 µM)"}, "[10]": {"tested_on": "S. mutans", "experiment": "microbe, parasite or virus in culture", "format": "cell-based, Streptococcus mutans", "experimental": "Staphylococci, Bacilli, Escherichia, Pseudomonas, Acinetobacter, Salmonella and Klebsiella species were grown in Luria Bertani broth (LB; 5 gr/l NaCl, 5 gr/l yeast extract, 10 gr/l tryptone). Enterococci and E. coli ML-35p were grown in Tryptic Soy Broth (TSB). Listeria and Streptococci were grown in Brain Heart Infusion (BHI). All bacteria were grown over-night at 37 °C with shaking. S. mutans 35668 plated on BHI agar for enumeration was grown for 48 hr. S. mutans UA159 was grown in 5% CO2 enriched atmosphere. Fusobacterium and Porphyromonas were grown in Wilkins-Chalgren growth medium and an anaerobic atmosphere.\nas §3"}, "[11]": {"tested_on": "Gram-positive bacteria (GPB)", "conditions": "48 h"}, "[12]": {"tested_on": "Fusobacterium", "format": "cell-based, Fusobacterium nucleatum", "conditions": "48 h", "from_the_text": "as §2, §4, §5"}}, "note": "Where a SMILES comes first, the peptide text is derived from it. [ ]: non-standard residue; d: D form. The star is where a group is joined. Myristoyl = CCCCCCCCCCCCCC(=O)*; 12Ado = NCCCCCCCCCCCC(=O)O"}
{"smiles": "CCCCCCCCCCCCCC(=O)N[C@@H](CCCCN)C(=O)N[C@@H](CCCCN)C(=O)NCCCCCCCCCCCC(=O)N[C@@H](CCCCN)C(N)=O", "note": "[C14KKc12K] (Myristoyl-KK[12Ado]K-NH2)", "values": [{"measurement": "killing of the initial inoculum in preformed biofilm", "setting": "[1]", "value": "> 99", "unit": "%"}, {"measurement": "reduction of viability", "setting": "[2]", "value": "> 2", "unit": "log-unit"}, {"measurement": "MIC", "setting": "[3]", "value": 3, "unit": "µM"}, {"measurement": "MIC", "setting": "[4]", "value": 3, "unit": "µM"}, {"measurement": "MIC", "setting": "[5]", "value": 3, "unit": "µM"}, {"measurement": "bactericidal concentration", "setting": "[6]; time-kill kinetics in BHI", "value": 1.56, "unit": "µM"}, {"measurement": "reduction of viability", "setting": "[6]; within 2 hours exposure to 1.56 µM, 5 × 10^5 CFU/ml, 37 °C", "value": "~ 2 log units"}, {"measurement": "reduction of viability of cultivable oral microflora", "setting": "[7]", "value": "> 99", "unit": "%"}, {"measurement": "MIC range", "setting": "[8]", "value": 3.12, "unit": "µM"}, {"measurement": "Effect observed at low concentrations (<3 µM)", "setting": "[9]", "value": "High efficacy in membranes disruption leading to a bactericidal mode of action in both GPB & GNB"}, {"measurement": "MIC", "setting": "[10]", "value": 0.78, "unit": "µM"}, {"measurement": "MIC50", "setting": "[11]", "value": 3, "unit": "µM"}, {"measurement": "MIC range", "setting": "[12]", "value": 6.25, "unit": "µM"}]}
